Laboratory results reported in ChEMBL document CHEMBL1156004, “Pyrazolopyrimidines and pyrazolotriazines with potent activity against herpesviruses” (Bioorg Med Chem Lett, 2009).

Assays:
[1] = Antiviral activity against HSV1 SC16 infected in african green monkey Vero cells by hybrid capture method; assay type: functional, cell-based, Herpes simplex virus (type 1 / strain SC16); settings: Human alphaherpesvirus 1, Vero
[2] = Cytotoxicity against african green monkey Vero cells; assay type: cell-based; settings: chlorocebus sabaeus
[3] = test system: Rattus norvegicus; assay: Volume of distribution in Sprague-Dawley rat at 1 mg/kg, iv and po; assay type: ADME, organism-based; parameters: dose 1 mg/kg, route oral; settings: in vivo
[4] = Half life in Sprague-Dawley rat at 1 mg/kg, iv and po; assay type: ADME, organism-based; parameters: dose 1 mg/kg, route oral; settings: in vivo
[5] = Cmax in Sprague-Dawley rat at 1 mg/kg, iv and po after 30 mins; assay type: ADME, organism-based; parameters: dose 1 mg/kg, route oral; settings: in vivo
[6] = Oral bioavailability in Sprague-Dawley rat at 1 mg/kg; assay type: ADME, organism-based; settings: in vivo

Structure (SMILES) | IC50 [1] [µM] | CC50 [2] [µM] | Vd [3] [L/kg] | half-life [4] [h] | Cmax [5] [µM] | bioavailability [6] [%]
COc1ccc(-c2nn3c(NC4CCCC4)ccnc3c2-c2ccnc(NC3CCCC3)c2)cc1 | 0.6 | 10 | – | – | – | –
c1ccc(-c2nn3c(NC4CCCC4)cccc3c2-c2ccnc(NC3CCCC3)n2)cc1 | 0.62 | > 40 | – | – | – | –
Fc1ccc(-c2nn3c(N4CCCC4)nccc3c2-c2ccnc(NC3CCCC3)n2)cc1 | 1.9 | > 40 | – | – | – | –
c1ccc(-c2nn3c(NC4CCCC4)ncnc3c2-c2ccnc(NC3CCCC3)n2)cc1 | 6.4 | > 40 | – | – | – | –
Clc1cccc(-c2nn3c(N4CCOCC4)nccc3c2-c2ccnc(NC3CCCC3)n2)c1 | 0.2 | > 40 | – | – | – | –
COCCOc1ccc(-c2nn3c(NC4CCCC4)nccc3c2-c2ccnc(NC3CCCC3)n2)cc1 | 1.12 | > 40 | – | – | – | –
Clc1cccc(-c2nn3c(NC4CCCC4)nccc3c2-c2ccnc(NC3CCCC3)n2)c1 | 0.46 | > 40 | – | – | – | –
Fc1ccc(-c2nn3c(NC4CCCC4)ccnc3c2-c2ccnc(NC3CCCC3)c2)cc1 | 1.2 | 16 | – | – | – | –
Fc1ccc(-c2nn3c(NC4CCCC4)cccc3c2-c2ccnc(NC3CCCC3)n2)cc1 | 0.26 | > 160 | – | – | – | –
c1cc(-c2c(-c3ccc(OCC4CC4)cc3)nn3c(NC4CCCC4)nccc23)nc(NC2CCCC2)n1 | 0.69 | > 40 | – | – | – | –
Fc1ccc(-c2nn3c(NC4CCCC4)nccc3c2-c2ccnc(NC3CCCC3)n2)cc1 | 0.17 | > 40 | 1.2 | 2.5 | 0.3 | 24
c1cc(NC2CCCC2)n2nc(-c3ccc(OCC4CC4)cc3)c(-c3ccnc(NC4CCCC4)n3)c2c1 | 0.17 | > 40 | – | – | – | –
CC(C)COc1ccc(-c2nn3c(NC4CCCC4)nccc3c2-c2ccnc(NC3CCCC3)n2)cc1 | 0.61 | > 40 | – | – | – | –
Oc1ccc(-c2nn3c(NC4CCCC4)nccc3c2-c2ccnc(NC3CCCC3)n2)cc1 | 4 | 27 | – | – | – | –
COc1ccc(-c2nn3c(NC4CCCC4)cccc3c2-c2ccnc(NC3CCCC3)n2)cc1 | 0.22 | > 100 | – | – | – | –
COCCNc1nccc2c(-c3ccnc(NC4CCCC4)n3)c(-c3cccc(Cl)c3)nn12 | 0.3 | > 40 | – | – | – | –
Fc1ccc(-c2nn3c(N4CCCCC4)nccc3c2-c2ccnc(NC3CCCC3)n2)cc1 | 0.98 | > 40 | – | – | – | –
Fc1ccc(-c2nn3c(NC4CCCC4)cc(NC4CCCC4)cc3c2-c2ccnc(NC3CCCC3)n2)cc1 | 0.24 | > 40 | – | – | – | –
c1ccc(-c2nn3c(NC4CCCC4)ccnc3c2-c2ccnc(NC3CCCC3)c2)cc1 | 0.3 | 14 | – | – | – | –
Nc1nc2c(ncn2COCCO)c(=O)[nH]1 [ACYCLOVIR] | 0.39 | > 200 | – | – | – | –
COc1ccc(-c2nn3c(NC4CCCC4)nccc3c2-c2ccnc(NC3CCCC3)n2)cc1 | 0.28 | > 40 | – | – | – | –
c1ccc(-c2nn3c(NC4CCCC4)nc(NC4CCCC4)nc3c2-c2ccnc(NC3CCCC3)c2)cc1 | 0.12 | > 40 | – | – | – | –
CCCOc1ccc(-c2nn3c(NC4CCCC4)nccc3c2-c2ccnc(NC3CCCC3)n2)cc1 | 0.54 | > 20 | – | – | – | –
CC(C)(C)Nc1nccc2c(-c3ccnc(NC4CCCC4)n3)c(-c3ccc(F)cc3)nn12 | 6.61 | > 40 | – | – | – | –
COc1ccc(-c2nn3c(NC4CCCC4)ccnc3c2-c2ccnc(NC3CCCC3)n2)cc1 | 2.4 | 32 | – | – | – | –
CCCCOc1ccc(-c2nn3c(NC4CCCC4)nccc3c2-c2ccnc(NC3CCCC3)n2)cc1 | 0.47 | > 40 | – | – | – | –
